The values below come from article PMC9090415, “Discovery of small molecule inhibitors of Plasmodium falciparum apicoplast DNA polymerase” (Journal of Enzyme Inhibition and Medicinal Chemistry, 2022).

The experiment deals with P. falciparum apicoplast DNA polymerase (Pf-apPOL) (Plasmodium falciparum, UniProt Q8ILY1). The experiment can be described thus: Fluorescence-based high-throughput DNA polymerase assay (molecular beacon), primary screen and dose-response.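 As to % inhibition ApPOL 90': test concentration in µM.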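 As to % inhibition apPOL 180': test concentration in µM.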 Type of experiment: biochemical. A digest of the protocol:
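Single-point screening used 10 µM compound with 20 nM polymerase, 20 nM hairpin substrate and 6 µM dNTPs for 90 min at 25 °C. Confirmatory titrations (2.5–80 µM) followed fluorescence at three times, and IC50 was derived from a fit including a cooperativity term n.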

[1] abbreviates: supplemental file 2, sheet IC50 nontoxic compounds; Pf-apPOL.

Chain of P. falciparum apicoplast DNA polymerase (Pf-apPOL) (Q8ILY1 entry or part of it): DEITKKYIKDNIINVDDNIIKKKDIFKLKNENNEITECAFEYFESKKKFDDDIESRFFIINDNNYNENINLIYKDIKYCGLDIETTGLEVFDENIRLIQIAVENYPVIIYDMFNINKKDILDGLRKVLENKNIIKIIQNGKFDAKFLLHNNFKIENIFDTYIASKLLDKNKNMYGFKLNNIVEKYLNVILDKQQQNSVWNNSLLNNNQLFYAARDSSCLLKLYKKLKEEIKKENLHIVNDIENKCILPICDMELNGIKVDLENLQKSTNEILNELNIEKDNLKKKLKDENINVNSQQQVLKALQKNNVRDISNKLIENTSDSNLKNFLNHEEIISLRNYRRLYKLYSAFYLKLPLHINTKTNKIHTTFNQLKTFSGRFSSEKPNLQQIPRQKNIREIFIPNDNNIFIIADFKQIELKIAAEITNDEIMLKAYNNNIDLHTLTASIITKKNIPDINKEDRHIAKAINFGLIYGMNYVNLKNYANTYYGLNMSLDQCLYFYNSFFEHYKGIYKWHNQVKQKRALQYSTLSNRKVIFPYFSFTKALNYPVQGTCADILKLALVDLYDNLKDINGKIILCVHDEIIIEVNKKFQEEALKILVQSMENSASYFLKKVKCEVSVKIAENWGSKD

On to `O=C(Cn1ccc2c(=O)[nH]ccc21)Nc1ccccc1Cl` [Molecule 19, O=C(Cn1ccc2c1cc[nH]c2=O)Nc1ccccc1Cl], for which the “% inhibition Apo pol 10'” value is 11.0481% (DRC-1; concentration 2.5; 10'); 18.9507% (DRC-1; concentration 5; 10'); 79.9443% (DRC-1; concentration 10; 10'); 88.2896% (DRC-1; concentration 20; 10'); 86.4384% (DRC-1; concentration 40; 10'); 78.354% (DRC-1; concentration 80 (unit not given); 10'). In addition, the “% inhibition Apol 90'” value (DRC-1; concentration 2.5; 90') is 3.184%; the “% inhibition Apol 90'” value (DRC-1; concentration 5; 90') is listed as 7.548%; the “% inhibition Apol 90'” value (DRC-1; concentration 10; 90') came out at 71.2049%; the “% inhibition Apol 90'” value (DRC-1; concentration 20; 90') turned out to be 90.2431%; the “% inhibition Apol 90'” value (DRC-1; concentration 40; 90') turned out to be 91.2458%; the “% inhibition Apol 90'” value (DRC-1; concentration 80; 90') came out at 86.1065%. Further, the “% inhibition apPOL 180'” value is -2.947% (DRC-1; concentration 2.5; 180'); -2.382% (DRC-1; concentration 5; 180'); 56.5053% (DRC-1; concentration 10; 180'); 88.4548% (DRC-1; concentration 20; 180'); 93.0665% (DRC-1; concentration 40; 180'); 89.6716% (DRC-1; concentration 80; 180'). The “% inhibition apPOL 180'” value runs as follows: (DRC-2; 180'; concentration 20) 77%; (DRC-2; 180'; concentration 40) 77%; (DRC-2; concentration 2.5; 180') -0.373%; (DRC-2; concentration 5; 180') 18%; (DRC-2; concentration 10; 180') 63%; (DRC-2; concentration 20; 180') 77%. Moreover, the “% inhibition apPOL 180'” value is, setting by setting: (DRC-2; concentration 40; 180') 77%; (DRC-2; concentration 80; 180') 72%. Also, the “% inhibition Apol 40'” value is given as 65% (DRC-2; 40'; concentration 10); 65% (DRC-2; 40'; concentration 40); 14% (DRC-2; concentration 2.5; 40'); 36% (DRC-2; concentration 5; 40'); 65% (DRC-2; concentration 10; 40'); 68% (DRC-2; concentration 20; 40'). The “% inhibition Apol 40'” value worked out at 65% (DRC-2; concentration 40; 40') and 56% (DRC-2; concentration 80; 40'). Moreover, the “% inhibition Apo pol 5'” value came out at 15% (DRC-2; concentration 2.5; 5'); 30% (DRC-2; concentration 5; 5'); 48% (DRC-2; concentration 10; 5'); 44% (DRC-2; concentration 20; 5'); 37% (DRC-2; concentration 40; 5'); 28% (DRC-2; concentration 80; 5'). The “% inhibition ApPOL 90'” value (DRC-2; concentration 2.5; 90') is on record as 9%; the “% inhibition ApPOL 90'” value (DRC-2; concentration 5; 90') was 32%; the “% inhibition ApPOL 90'” value (DRC-2; concentration 10; 90') was found to be 67%; the “% inhibition ApPOL 90'” value (DRC-2; concentration 20; 90') amounted to 73%; the “% inhibition ApPOL 90'” value (DRC-2; concentration 40; 90') stood at 70%; the “% inhibition ApPOL 90'” value (DRC-2; concentration 80; 90') is on record as 64%. Moreover, the “DNA Pol” value is 82 (primary screen value of the 186 hits; unit not given; 90 min, 10 µM) and 82 (primary screen value; head prints only 'DNA Pol'; 90 min, 10 µM).
As for `O=C(Cn1ccc2c(=O)[nH]ccc21)Nc1ccccc1Cl` [Molecule 19], the IC50 – broadly, the concentration that inhibits the measured activity by half – under setting [1] is 6.87 µM.
As for `N#Cc1c(C2CCCCC2)nc(Sc2ccc(C(F)(F)F)cc2[N+](=O)[O-])[nH]c1=O` [Molecule 20, N#Cc1c(=O)[nH]c(nc1C1CCCCC1)Sc1ccc(cc1N(=O)=O)C(F)(F)F], the “DNA Pol” value by setting is: ('DNA Pol' of the 186 hits list (primary screen result); unit not given; 90 min, 10 µM) 99; (primary screen value of the library well; unit not given; 90 min, 10 µM) 99. The “% inhibition Apo pol 10'” value by setting is: (DRC-1; 10'; concentration 2.5) 13.479%; (DRC-1; 10'; concentration 5) 22.3075%; (DRC-1; 10'; concentration 10) 58.5642%; (DRC-1; 10'; concentration 20) 88.1341%; (DRC-1; 10'; concentration 40) 96.8636%; (DRC-1; 10'; concentration 80) 98.9889%. The “% inhibition Apol 90'” value (DRC-1; 90'; concentration 2.5) is listed as 11.5568%; the “% inhibition Apol 90'” value (DRC-1; 90'; concentration 5) came to 20.2551%; the “% inhibition Apol 90'” value (DRC-1; 90'; concentration 10) turned out to be 55.7655%; the “% inhibition Apol 90'” value (DRC-1; 90'; concentration 20) is listed as 84.5767%; the “% inhibition Apol 90'” value (DRC-1; 90'; concentration 40) was 95.5899%; the “% inhibition Apol 90'” value (DRC-1; 90'; concentration 80) stood at 98.5408%. Further, the “% inhibition apPOL 180'” value runs as follows: (DRC-1; 180'; concentration 2.5) 4.639%; (DRC-1; 180'; concentration 5) 10.6134%; (DRC-1; 180'; concentration 10) 43.2916%; (DRC-1; 180'; concentration 20) 78.9137%; (DRC-1; 180'; concentration 40) 94.1749%; (DRC-1; 180'; concentration 80) 98.1002%. For the same compound, the “% inhibition apPOL 180'” value (DRC-2, 180', concentration 40 (unit not given)) turned out to be 77%; the “% inhibition apPOL 180'” value (DRC-2; 180'; concentration 2.5) is on record as -0.258%; the “% inhibition apPOL 180'” value (DRC-2; 180'; concentration 5) is given as 7%; the “% inhibition apPOL 180'” value (DRC-2; 180'; concentration 10) was 46%; the “% inhibition apPOL 180'” value (DRC-2; 180'; concentration 20) amounted to 64%; the “% inhibition apPOL 180'” value (DRC-2; 180'; concentration 40) worked out at 77%. The “% inhibition apPOL 180'” value (DRC-2; 180'; concentration 80) stood at 85%. Moreover, the “% inhibition Apo pol 5'” value reads like this: (DRC-2, 5', concentration 20 (unit not given)) 55%; (DRC-2; 5'; concentration 2.5) 3.66%; (DRC-2; 5'; concentration 5) 11%; (DRC-2; 5'; concentration 10) 43%; (DRC-2; 5'; concentration 20) 55%; (DRC-2; 5'; concentration 40) 60%. Besides, for the setting “DRC-2; 5'; concentration 80”, the “% inhibition Apo pol 5'” value was found to be 61%. Further, the “% inhibition Apol 40'” value reads like this: (DRC-2, 40', concentration 10 (unit not given)) 55%; (DRC-2; 40'; concentration 2.5) 6.56%; (DRC-2; 40'; concentration 5) 16%; (DRC-2; 40'; concentration 10) 55%; (DRC-2; 40'; concentration 20) 68%; (DRC-2; 40'; concentration 40) 75%. Moreover, the “% inhibition Apol 40'” value (DRC-2; 40'; concentration 80) is given as 78%. In addition, the “% inhibition ApPOL 90'” value stood at 77% (DRC-2, 90', concentration 40 (unit not given)); 4.51% (DRC-2; 90'; concentration 2.5); 13% (DRC-2; 90'; concentration 5); 54% (DRC-2; 90'; concentration 10); 69% (DRC-2; 90'; concentration 20); 77% (DRC-2; 90'; concentration 40). Further, where the note is “DRC-2; 90'; concentration 80”, the “% inhibition ApPOL 90'” value was found to be 82%.
With `N#Cc1c(C2CCCCC2)nc(Sc2ccc(C(F)(F)F)cc2[N+](=O)[O-])[nH]c1=O` [Molecule 20], the IC50 under setting [1] was 8.81 µM.
For `COc1cccc(C(=O)N2CCc3c(nc4cc(-c5ccccc5)[nH]n4c3=O)C2)c1OC` [Molecule 22], the IC50 under setting [1] was found to be 7.31 µM.
